Measured values from ChEMBL document CHEMBL3734682, “PPL catalyzed four-component PASE synthesis of 5-monosubstituted barbiturates: Structure and pharmacological properties” (2015).
In brackets after ≈: the same amount, converted by molar mass. Activity calls are given as the source filed them. The rule behind the calls is not given here.

Experiments:
[1] = tested on: Pseudomonas syringae; assay: Antibacterial activity against clinical isolate Gram-negative Pseudomonas syringae after 24 hrs by agar diffusion assay; assay type: functional
[2] = tested on: Bacillus subtilis; assay: Antibacterial activity against clinical isolate Gram-positive Bacillus subtilis after 24 hrs by agar diffusion assay; assay type: functional
[3] = tested on: DLA; assay: Induction of apoptosis in Swiss albino mouse DLA cells assessed as chromatin condensation at 25,50 and 100 ug/ml after 12 hrs by AO/EtBr staining based fluorescence microscopic analysis; assay type: functional, cell-based
[4] = tested on: Escherichia coli; assay: Antibacterial activity against clinical isolates Escherichia coli after 24 hrs by agar diffusion assay; assay type: functional
[5] = tested on: DLA; assay: Induction of apoptosis in Swiss albino mouse DLA cells assessed as membrane blebbing at 25,50 and 100 ug/ml after 12 hrs by AO/EtBr staining based fluorescence microscopic analysis; assay type: functional, cell-based
[6] = tested on: DLA; assay: Induction of apoptosis in Swiss albino mouse DLA cells assessed as nuclear fragmentation at 25,50 and 100 ug/ml after 12 hrs by AO/EtBr staining based fluorescence microscopic analysis; assay type: functional, cell-based
[7] = tested on: Staphylococcus aureus; assay: Antibacterial activity against clinical isolates Staphylococcus aureus after 24 hrs by agar diffusion assay; assay type: functional
[8] = tested on: Proteus vulgaris; assay: Antibacterial activity against clinical isolates Proteus vulgaris after 24 hrs by agar diffusion assay; assay type: functional
[9] = tested on: DLA; assay: Induction of apoptosis in Swiss albino mouse DLA cells assessed as cell shrinkage at 25,50 and 100 ug/ml after 12 hrs by AO/EtBr staining based fluorescence microscopic analysis; assay type: functional
[10] = tested on: DLA; assay: Induction of apoptosis in Swiss albino mouse DLA cells assessed as cytoplasmic vacuoles at 50 and 100 ug/ml after 12 hrs by AO/EtBr staining based fluorescence microscopic analysis; assay type: functional, cell-based
[11] = tested on: DLA; assay: Induction of apoptosis in Swiss albino mouse DLA cells assessed as nucleolus pyknosis at 50 and 100 ug/ml after 12 hrs by AO/EtBr staining based fluorescence microscopic analysis; assay type: functional, cell-based
[12] = Induction of apoptosis in Swiss albino mouse DLA cells at 100 ug/ml after 12 hrs by AO/EtBr staining based fluorescence microscopic analysis; assay type: functional
[13] = tested on: DLA; assay: Induction of apoptosis in Swiss albino mouse DLA cells assessed as nuclear fragmentation at 50 and 100 ug/ml after 12 hrs by AO/EtBr staining based fluorescence microscopic analysis; assay type: functional, cell-based

## COc1ccccc1[C@H](c1c(C)[nH][nH]c1=O)c1c(O)[nH]c(=O)[nH]c1=O
[1]
  MIC: 100 µg/mL (≈ 290 µM)
[2]
  MIC: 100 µg/mL (≈ 290 µM)
[3]
  Activity: Active
[4]
  MIC: 100 µg/mL (≈ 290 µM)
[5]
  Activity: Active
[6]
  Activity: Active
[7]
  MIC: 100 µg/mL (≈ 290 µM)
[8]
  MIC: 100 µg/mL (≈ 290 µM)
[9]
  Activity: Active

## Cc1[nH][nH]c(=O)c1[C@@H](c1cccc([N+](=O)[O-])c1)c1c(O)[nH]c(=S)[nH]c1=O
[3]
  Activity: Active
[5]
  Activity: Active
[6]
  Activity: Active
[9]
  Activity: Active

## Cc1[nH][nH]c(=O)c1[C@@H](c1ccccc1)c1c(O)[nH]c(=O)[nH]c1=O
[2]
  MIC: 100 µg/mL (≈ 318 µM)
[3]
  Activity: Active
[5]
  Activity: Active
[6]
  Activity: Active
[8]
  MIC: 100 µg/mL (≈ 318 µM)
[9]
  Activity: Active

## CCC[C@H](c1c(C)[nH][nH]c1=O)c1c(O)[nH]c(=S)[nH]c1=O
[2]
  MIC: 100 µg/mL (≈ 337 µM)
[3]
  Activity: Active
[5]
  Activity: Active
[6]
  Activity: Active
[9]
  Activity: Active

## CCC[C@H](c1c(C)[nH][nH]c1=O)c1c(O)[nH]c(=O)[nH]c1=O
[2]
  MIC: 100 µg/mL (≈ 357 µM)
[3]
  Activity: Active
[5]
  Activity: Active
[10]
  Activity: Active
[6]
  Activity: Active
[11]
  Activity: Active
[12]
  Activity: 12%
[13]
  Activity: Active
[9]
  Activity: Active

## Cc1[nH][nH]c(=O)c1[C@@H](c1ccccc1Cl)c1c(O)[nH]c(=O)[nH]c1=O
[1]
  MIC: 100 µg/mL (≈ 287 µM)
[2]
  MIC: 100 µg/mL (≈ 287 µM)
[3]
  Activity: Active
[4]
  MIC: 100 µg/mL (≈ 287 µM)
[5]
  Activity: Active
[6]
  Activity: Active
[7]
  MIC: 100 µg/mL (≈ 287 µM)
[8]
  MIC: 100 µg/mL (≈ 287 µM)
[9]
  Activity: Active

## Cc1[nH][nH]c(=O)c1[C@@H](c1cccc([N+](=O)[O-])c1)c1c(O)[nH]c(=O)[nH]c1=O
[2]
  MIC: 100 µg/mL (≈ 278 µM)
[3]
  Activity: Active
[5]
  Activity: Active
[10]
  Activity: Active
[6]
  Activity: Active
[11]
  Activity: Active
[12]
  Activity: 15%
[8]
  MIC: 100 µg/mL (≈ 278 µM)
[13]
  Activity: Active
[9]
  Activity: Active

## COc1ccc([C@H](c2c(C)[nH][nH]c2=O)c2c(O)[nH]c(=O)[nH]c2=O)cc1
[2]
  MIC: 100 µg/mL (≈ 290 µM)
[3]
  Activity: Active
[5]
  Activity: Active
[10]
  Activity: Active
[6]
  Activity: Active
[11]
  Activity: Active
[12]
  Activity: 15%
[8]
  MIC: 100 µg/mL (≈ 290 µM)
[13]
  Activity: Active
[9]
  Activity: Active

## Cc1[nH][nH]c(=O)c1[C@@H](c1ccccc1)c1c(O)[nH]c(=S)[nH]c1=O
[3]
  Activity: Active
[5]
  Activity: Active
[6]
  Activity: Active
[9]
  Activity: Active

## Cc1[nH][nH]c(=O)c1[C@@H](c1ccc(F)cc1)c1c(O)[nH]c(=O)[nH]c1=O
[1]
  MIC: 25 µg/mL (≈ 75.2 µM)
[2]
  MIC: 100 µg/mL (≈ 301 µM)
[3]
  Activity: Active
[5]
  Activity: Active
[6]
  Activity: Active
[8]
  MIC: 100 µg/mL (≈ 301 µM)
[9]
  Activity: Active

## Cc1[nH][nH]c(=O)c1[C@@H](c1ccc([N+](=O)[O-])cc1)c1c(O)[nH]c(=O)[nH]c1=O
[2]
  MIC: 100 µg/mL (≈ 278 µM)
[3]
  Activity: Active
[5]
  Activity: Active
[10]
  Activity: Active
[6]
  Activity: Active
[11]
  Activity: Active
[12]
  Activity: 12%
[8]
  MIC: 100 µg/mL (≈ 278 µM)
[13]
  Activity: Active
[9]
  Activity: Active

## Cc1[nH][nH]c(=O)c1[C@@H](c1ccc(Cl)cc1)c1c(O)[nH]c(=O)[nH]c1=O
[2]
  MIC: 25 µg/mL (≈ 71.7 µM)
[3]
  Activity: Active
[5]
  Activity: Active
[10]
  Activity: Active
[6]
  Activity: Active
[11]
  Activity: Active
[12]
  Activity: 18%
[8]
  MIC: 100 µg/mL (≈ 287 µM)
[13]
  Activity: Active
[9]
  Activity: Active

## Cc1[nH][nH]c(=O)c1[C@@H](c1ccc(F)cc1)c1c(O)[nH]c(=S)[nH]c1=O
[3]
  Activity: Active
[5]
  Activity: Active
[6]
  Activity: Active
[9]
  Activity: Active

## CCCC[C@H](c1c(C)[nH][nH]c1=O)c1c(O)[nH]c(=O)[nH]c1=O
[3]
  Activity: Active
[5]
  Activity: Active
[6]
  Activity: Active
[9]
  Activity: Active

## CC1(C)S[C@@H]2[C@H](NC(=O)[C@H](N)c3ccccc3)C(=O)N2[C@H]1C(=O)O [AMPICILLIN]
[1]
  MIC: 5 µg/mL (≈ 14.3 µM)
[2]
  MIC: 5 µg/mL (≈ 14.3 µM)
[4]
  MIC: 5 µg/mL (≈ 14.3 µM)
[7]
  MIC: 5 µg/mL (≈ 14.3 µM)
[8]
  MIC: 5 µg/mL (≈ 14.3 µM)

## Cc1[nH][nH]c(=O)c1[C@@H](c1cccc(O)c1)c1c(O)[nH]c(=O)[nH]c1=O
[2]
  MIC: 25 µg/mL (≈ 75.7 µM)
[3]
  Activity: Active
[5]
  Activity: Active
[6]
  Activity: Active
[7]
  MIC: 100 µg/mL (≈ 303 µM)
[8]
  MIC: 100 µg/mL (≈ 303 µM)
[9]
  Activity: Active

## Cc1[nH][nH]c(=O)c1[C@@H](c1cccc(Br)c1)c1c(O)[nH]c(=O)[nH]c1=O
[1]
  MIC: 100 µg/mL (≈ 254 µM)
[2]
  MIC: 25 µg/mL (≈ 63.6 µM)
[3]
  Activity: Active
[5]
  Activity: Active
[10]
  Activity: Active
[6]
  Activity: Active
[11]
  Activity: Active
[12]
  Activity: 13%
[8]
  MIC: 100 µg/mL (≈ 254 µM)
[13]
  Activity: Active
[9]
  Activity: Active

## Cc1[nH][nH]c(=O)c1[C@@H](c1ccc(Cl)cc1)c1c(O)[nH]c(=S)[nH]c1=O
[2]
  MIC: 100 µg/mL (≈ 274 µM)
[3]
  Activity: Active
[5]
  Activity: Active
[6]
  Activity: Active
[8]
  MIC: 100 µg/mL (≈ 274 µM)
[9]
  Activity: Active

## Cc1[nH][nH]c(=O)c1[C@@H](c1cccnc1)c1c(O)[nH]c(=O)[nH]c1=O
[2]
  MIC: 100 µg/mL (≈ 317 µM)
[3]
  Activity: Active
[5]
  Activity: Active
[6]
  Activity: Active
[9]
  Activity: Active

## NC[C@H]1O[C@H](O[C@H]2[C@H](O)[C@@H](O[C@H]3O[C@H](CO)[C@@H](O)[C@H](N)[C@H]3O)[C@H](N)C[C@@H]2N)[C@H](O)[C@@H](O)[C@@H]1O [KANAMYCIN]
[1]
  MIC: 10 µg/mL (≈ 20.6 µM)
[2]
  MIC: 5 µg/mL (≈ 10.3 µM)
[4]
  MIC: 5 µg/mL (≈ 10.3 µM)
[7]
  MIC: 80 µg/mL (≈ 165 µM)
[8]
  MIC: 5 µg/mL (≈ 10.3 µM)

## Cc1[nH][nH]c(=O)c1[C@@H](c1ccccc1[N+](=O)[O-])c1c(O)[nH]c(=O)[nH]c1=O
[1]
  MIC: 100 µg/mL (≈ 278 µM)
[2]
  MIC: 100 µg/mL (≈ 278 µM)
[3]
  Activity: Active
[4]
  MIC: 100 µg/mL (≈ 278 µM)
[5]
  Activity: Active
[6]
  Activity: Active
[8]
  MIC: 100 µg/mL (≈ 278 µM)
[9]
  Activity: Active

## CCOC(=O)[C@H](c1c(C)[nH][nH]c1=O)c1c(O)[nH]c(=O)[nH]c1=O
[1]
  MIC: 100 µg/mL (≈ 322 µM)
[2]
  MIC: 100 µg/mL (≈ 322 µM)
[3]
  Activity: Active
[4]
  MIC: 100 µg/mL (≈ 322 µM)
[5]
  Activity: Active
[10]
  Activity: Active
[6]
  Activity: Active
[7]
  MIC: 100 µg/mL (≈ 322 µM)
[11]
  Activity: Active
[12]
  Activity: 23%
[8]
  MIC: 100 µg/mL (≈ 322 µM)
[13]
  Activity: Active
[9]
  Activity: Active
